Laboratory results reported in article PMC5218480 (PLoS ONE, 2017).

System: MV-4-11 cells
Test: Gene expression microarray analysis (Affymetrix PrimeView) and GSEA
Format: cell-based, human
Parameters: RFU PODN (11730768_x_at) / Fold change /veh PODN (11730768_x_at) / RFU LINC00158 (11744669_a_at) / Fold change /veh LINC00158 (11744669_a_at) / RFU DUSP10 (11751237_a_at) / Fold change /veh DUSP10 (11751237_a_at) / RFU ID3 (11757404_x_at) / Fold change /veh ID3 (11757404_x_at) / RFU PLEKHG5 (11737974_s_at) / Fold change /veh PLEKHG5 (11737974_s_at) / RFU LRRC4B (11730491_at) / Fold change /veh LRRC4B (11730491_at) / RFU GIMAP4 (11747438_a_at) / Fold change /veh GIMAP4 (11747438_a_at) / RFU KRT8 (11758183_x_at) / Fold change /veh KRT8 (11758183_x_at) / RFU CNN1 (11734310_a_at) / Fold change /veh CNN1 (11734310_a_at) / RFU VPS37D (11726825_at) / Fold change /veh VPS37D (11726825_at) / RFU C10orf10 (11716522_x_at) / Fold change /veh C10orf10 (11716522_x_at) / RFU KIR2DL2 /// KIR2DL4 /// KIR2DL5A /// KIR2DL5B /// KIR2DS1 /// KIR2DS2 /// KIR2DS3 /// KIR2DS4 /// KIR3DL3 /// KIR3DL3 /// KIR3DS1 (11738374_at) / Fold change /veh KIR2DL2 /// KIR2DL4 /// KIR2DL5A /// KIR2DL5B /// KIR2DS1 /// KIR2DS2 /// KIR2DS3 /// KIR2DS4 /// KIR3DL3 /// KIR3DL3 /// KIR3DS1 (11738374_at) / RFU C1QL1 (11718748_at) / Fold change /veh C1QL1 (11718748_at) / RFU TMPRSS4 (11747572_a_at) / Fold change /veh TMPRSS4 (11747572_a_at) / RFU HAMP (11756126_x_at) / Fold change /veh HAMP (11756126_x_at) / RFU RNFT2 (11725882_a_at) / Fold change /veh RNFT2 (11725882_a_at) / RFU NR4A2 (11747474_a_at) / Fold change /veh NR4A2 (11747474_a_at) / RFU ABCC12 (11746883_a_at) / Fold change /veh ABCC12 (11746883_a_at) / RFU TMEM136 (11760407_x_at) / Fold change /veh TMEM136 (11760407_x_at) / RFU CLDN22 /// WWC2 (11732394_at) / Fold change /veh CLDN22 /// WWC2 (11732394_at) / RFU HLA-DPB1 (11760878_x_at) / Fold change /veh HLA-DPB1 (11760878_x_at) / RFU SPINT1 (11716480_a_at) / Fold change /veh SPINT1 (11716480_a_at) / RFU GAP43 (11754022_s_at) / Fold change /veh GAP43 (11754022_s_at) / RFU A4GNT (11735810_at) / Fold change /veh A4GNT (11735810_at) / RFU PRB3 (11715151_x_at) / Fold change /veh PRB3 (11715151_x_at) / RFU TUBB4B (11761932_at) / Fold change /veh TUBB4B (11761932_at) / RFU CAPN14 (11732068_a_at) / Fold change /veh CAPN14 (11732068_a_at) / RFU TMCC2 (11721928_a_at) / Fold change /veh TMCC2 (11721928_a_at) / RFU IRGQ (11745062_a_at) / Fold change /veh IRGQ (11745062_a_at) / RFU FAM174B (11720279_a_at) / Fold change /veh FAM174B (11720279_a_at) / RFU TMPRSS4 (11748680_a_at) / Fold change /veh TMPRSS4 (11748680_a_at) / RFU FAM212B (11763350_a_at) / Fold change /veh FAM212B (11763350_a_at) / RFU PLEKHG5 (11743358_a_at) / Fold change /veh PLEKHG5 (11743358_a_at) / RFU ZSCAN30 (11745921_a_at) / Fold change /veh ZSCAN30 (11745921_a_at) / RFU CMKLR1 (11741424_a_at) / Fold change /veh CMKLR1 (11741424_a_at) / RFU LOC101060620 /// MAPK8IP1 (11723275_at) / Fold change /veh LOC101060620 /// MAPK8IP1 (11723275_at) / RFU SPTSSB (11747773_x_at) / Fold change /veh SPTSSB (11747773_x_at) / RFU PRSS12 (11739890_at) / Fold change /veh PRSS12 (11739890_at) / RFU BIN1 (11741810_x_at) / Fold change /veh BIN1 (11741810_x_at) / RFU WNT11 (11732464_a_at) / Fold change /veh WNT11 (11732464_a_at) / RFU C10orf10 (11716521_a_at) / Fold change /veh C10orf10 (11716521_a_at) / RFU C5orf56 (11738089_at) / Fold change /veh C5orf56 (11738089_at) / RFU CYB561 (11721691_x_at) / Fold change /veh CYB561 (11721691_x_at) / RFU ANKRD19P (11752326_a_at) / Fold change /veh ANKRD19P (11752326_a_at) / RFU OR2T12 /// OR2T33 /// OR2T8 (11738714_s_at) / Fold change /veh OR2T12 /// OR2T33 /// OR2T8 (11738714_s_at) / RFU VCAN (11748164_a_at) / Fold change /veh VCAN (11748164_a_at) / RFU JSRP1 (11732532_at) / Fold change /veh JSRP1 (11732532_at) / RFU KRTAP10-11 (11738290_x_at) / Fold change /veh KRTAP10-11 (11738290_x_at) / RFU MYO3A (11730013_a_at) / Fold change /veh MYO3A (11730013_a_at) / RFU EBF3 (11725865_a_at) / Fold change /veh EBF3 (11725865_a_at) / RFU CAMK2N1 (11719241_x_at) / Fold change /veh CAMK2N1 (11719241_x_at) / RFU C5orf56 (11738088_a_at) / Fold change /veh C5orf56 (11738088_a_at) / RFU OLFML3 (11715873_a_at) / Fold change /veh OLFML3 (11715873_a_at) / RFU LOC100653217 /// NTM (11731650_a_at) / Fold change /veh LOC100653217 /// NTM (11731650_a_at) / RFU MAPK11 (11762145_a_at) / Fold change /veh MAPK11 (11762145_a_at) / RFU FIZ1 (11724087_x_at) / Fold change /veh FIZ1 (11724087_x_at) / RFU OASL (11726364_x_at) / Fold change /veh OASL (11726364_x_at) / RFU SOX15 (11748057_x_at) / Fold change /veh SOX15 (11748057_x_at) / RFU CD79A (11719716_a_at) / Fold change /veh CD79A (11719716_a_at) / RFU HIST1H1D (11736915_at) / Fold change /veh HIST1H1D (11736915_at) / RFU CASKIN2 (11723855_a_at) / Fold change /veh CASKIN2 (11723855_a_at) / RFU LOC730098 (11760151_x_at) / Fold change /veh LOC730098 (11760151_x_at) / RFU OR4N2 (11742367_at) / Fold change /veh OR4N2 (11742367_at) / RFU PRRT2 (11749266_a_at) / Fold change /veh PRRT2 (11749266_a_at) / RFU SNX32 (11753110_a_at) / Fold change /veh SNX32 (11753110_a_at) / RFU CDHR5 (11726645_a_at) / Fold change /veh CDHR5 (11726645_a_at) / RFU RCAN1 (11760418_a_at) / Fold change /veh RCAN1 (11760418_a_at) / RFU FAM167A (11723789_a_at) / Fold change /veh FAM167A (11723789_a_at) / RFU FAM26E (11764081_at) / Fold change /veh FAM26E (11764081_at) / RFU ISYNA1 (11749810_s_at) / Fold change /veh ISYNA1 (11749810_s_at) / RFU ACY1 (11761880_at) / Fold change /veh ACY1 (11761880_at) / RFU 11764098_at / Fold change /veh 11764098_at / RFU SAMD14 (11745864_x_at) / Fold change /veh SAMD14 (11745864_x_at) / RFU NPB (11741838_a_at) / Fold change /veh NPB (11741838_a_at) / RFU TMPRSS6 (11731388_a_at) / Fold change /veh TMPRSS6 (11731388_a_at) / RFU KRTAP10-2 (11738614_at) / Fold change /veh KRTAP10-2 (11738614_at) / RFU ARHGAP8 /// PRR5-ARHGAP8 (11727945_x_at) / Fold change /veh ARHGAP8 /// PRR5-ARHGAP8 (11727945_x_at) / RFU KRTAP5-7 /// NADSYN1 (11734609_at) / Fold change /veh KRTAP5-7 /// NADSYN1 (11734609_at) / RFU RASL12 (11751679_a_at) / Fold change /veh RASL12 (11751679_a_at) / RFU CDKN2B (11736163_a_at) / Fold change /veh CDKN2B (11736163_a_at) / RFU PRF1 (11729649_at) / Fold change /veh PRF1 (11729649_at) / RFU, ZNF638 /// ZNF638-IT1 / Fold change vs veh, ZNF638 /// ZNF638-IT1 / RFU, PANK3 / Fold change vs veh, PANK3 / RFU, SH3YL1 / Fold change vs veh, SH3YL1 / RFU, ZEB2 / Fold change vs veh, ZEB2 / RFU, NRIP1 / Fold change vs veh, NRIP1 / RFU, PTTG1IP / Fold change vs veh, PTTG1IP / RFU, CAPN2 / Fold change vs veh, CAPN2 / RFU, MED14 / Fold change vs veh, MED14 / RFU, SNORA58 / Fold change vs veh, SNORA58 / RFU, C1orf63 / Fold change vs veh, C1orf63 / RFU, LRRFIP1 / Fold change vs veh, LRRFIP1 / RFU, NDUFAF7 / Fold change vs veh, NDUFAF7 / RFU, SLC12A2 / Fold change vs veh, SLC12A2 / RFU, IBTK / Fold change vs veh, IBTK / RFU, ESF1 / Fold change vs veh, ESF1 / Fold change vs veh, TMEM50B / RFU, TAOK1 / Fold change vs veh, TAOK1 / RFU, ACBD3 / Fold change vs veh, ACBD3 / RFU, TMA16 / Fold change vs veh, TMA16 / RFU, RWDD3 / Fold change vs veh, RWDD3 / RFU, BCAT1 / Fold change vs veh, BCAT1 / RFU, EDEM3 / Fold change vs veh, EDEM3 / RFU, TMEM33 / Fold change vs veh, TMEM33 / RFU, WDR75 / Fold change vs veh, WDR75 / RFU, AHCTF1 / Fold change vs veh, AHCTF1 / RFU, TFRC / Fold change vs veh, TFRC / RFU, ZDHHC17 / Fold change vs veh, ZDHHC17 / RFU, NOM1 / Fold change vs veh, NOM1 / RFU, ARL8B / Fold change vs veh, ARL8B / RFU, ZBTB11 / Fold change vs veh, ZBTB11 / RFU, TAMM41 / Fold change vs veh, TAMM41 / RFU, KIAA1704 /// LOC100996395 / Fold change vs veh, KIAA1704 /// LOC100996395 / RFU, ING1 / Fold change vs veh, ING1 / RFU, TRMT61B / Fold change vs veh, TRMT61B / RFU, FUBP3 / Fold change vs veh, FUBP3 / RFU, TP53 / Fold change vs veh, TP53 / RFU, TNKS2 / Fold change vs veh, TNKS2 / RFU, ZFP14 / Fold change vs veh, ZFP14 / RFU, ACTR2 / Fold change vs veh, ACTR2 / RFU, PPP3R1 / Fold change vs veh, PPP3R1 / RFU, PIK3R1 / Fold change vs veh, PIK3R1 / RFU, HNRNPA1 / Fold change vs veh, HNRNPA1 / RFU, RNF170 / Fold change vs veh, RNF170 / RFU, ZNF28 / Fold change vs veh, ZNF28 / RFU, RNGTT / Fold change vs veh, RNGTT / RFU, OGT / Fold change vs veh, OGT / RFU, BRD1 / Fold change vs veh, BRD1 / RFU, MARS / Fold change vs veh, MARS / RFU, ZNF655 / Fold change vs veh, ZNF655 / RFU, FAHD1 / Fold change vs veh, FAHD1 / RFU, BDP1 / Fold change vs veh, BDP1 / RFU, LRRCC1 / Fold change vs veh, LRRCC1 / RFU, ARID1A / Fold change vs veh, ARID1A / RFU, ZNF146 / Fold change vs veh, ZNF146 / RFU, ZNF330 / Fold change vs veh, ZNF330 / RFU, GPN3 / Fold change vs veh, GPN3 / RFU, C9orf123 / Fold change vs veh, C9orf123 / RFU, N4BP2L2 / Fold change vs veh, N4BP2L2 / RFU, ARFIP1 / Fold change vs veh, ARFIP1 / RFU, FAM179B / Fold change vs veh, FAM179B / RFU, BCL10 / Fold change vs veh, BCL10 / RFU, UHRF1BP1L / Fold change vs veh, UHRF1BP1L / RFU, BET1 / Fold change vs veh, BET1 / RFU, CNOT2 / Fold change vs veh, CNOT2 / RFU, ZNF268 / Fold change vs veh, ZNF268 / Fold change vs veh, ZNF507 / RFU, DGCR2 / Fold change vs veh, DGCR2 / RFU, WDSUB1 / Fold change vs veh, WDSUB1 / Fold change vs veh, HSP90B1 /// MIR3652 / RFU, ADSS / Fold change vs veh, ADSS / RFU, GK / Fold change vs veh, GK / RFU, ZNF148 / Fold change vs veh, ZNF148 / RFU, TAF9 / Fold change vs veh, TAF9 / RFU, SLC1A5 / Fold change vs veh, SLC1A5 / RFU, SLMO2 / Fold change vs veh, SLMO2 / RFU, ABCC4 / Fold change vs veh, ABCC4 / RFU, LOC101060439 /// RAP1B / Fold change vs veh, LOC101060439 /// RAP1B / RFU, RFX7 / Fold change vs veh, RFX7 / RFU, GTPBP10 / Fold change vs veh, GTPBP10 / RFU, CNEP1R1 / Fold change vs veh, CNEP1R1 / RFU, BIVM-ERCC5 /// ERCC5 / Fold change vs veh, BIVM-ERCC5 /// ERCC5 / RFU, ILF3 / Fold change vs veh, ILF3 / RFU 11762660_at / Fold change /veh 11762660_at / RFU VCAN (11757783_s_at) / Fold change /veh VCAN (11757783_s_at) / RFU DDX43 (11728927_at) / Fold change /veh DDX43 (11728927_at) / RFU KRT8 (11758188_x_at) / Fold change /veh KRT8 (11758188_x_at) / RFU NKD1 (11759106_at) / Fold change /veh NKD1 (11759106_at) / RFU SRD5A1 (11742802_a_at) / Fold change /veh SRD5A1 (11742802_a_at) / RFU TPSAB1 /// TPSB2 (11721975_s_at) / Fold change /veh TPSAB1 /// TPSB2 (11721975_s_at) / RFU GSTM3 (11746129_a_at) / Fold change /veh GSTM3 (11746129_a_at) / RFU IL23R (11737362_x_at) / Fold change /veh IL23R (11737362_x_at) / RFU TMEM51 (11727254_a_at) / Fold change /veh TMEM51 (11727254_a_at) / RFU PIWIL2 (11732686_x_at) / Fold change /veh PIWIL2 (11732686_x_at) / RFU ORM1 (11744905_x_at) / Fold change /veh ORM1 (11744905_x_at) / RFU CCDC152 (11743942_at) / Fold change /veh CCDC152 (11743942_at) / RFU ECM1 (11717891_a_at) / Fold change /veh ECM1 (11717891_a_at) / RFU IL23R (11748794_a_at) / Fold change /veh IL23R (11748794_a_at) / RFU TNFAIP8L3 (11732012_x_at) / Fold change /veh TNFAIP8L3 (11732012_x_at) / RFU MBOAT4 (11741988_at) / Fold change /veh MBOAT4 (11741988_at) / RFU 11764193_at / Fold change /veh 11764193_at / RFU TMEM53 (11763286_at) / Fold change /veh TMEM53 (11763286_at) / RFU MAGEB2 (11727129_at) / Fold change /veh MAGEB2 (11727129_at) / RFU TMEM200A (11744735_a_at) / Fold change /veh TMEM200A (11744735_a_at) / RFU CCDC152 (11751479_a_at) / Fold change /veh CCDC152 (11751479_a_at) / RFU FAM211A (11726209_a_at) / Fold change /veh FAM211A (11726209_a_at) / RFU RGS16 (11746705_a_at) / Fold change /veh RGS16 (11746705_a_at) / RFU VCAN (11755009_s_at) / Fold change /veh VCAN (11755009_s_at) / RFU RHOB (11743442_s_at) / Fold change /veh RHOB (11743442_s_at) / RFU RGS16 (11720943_a_at) / Fold change /veh RGS16 (11720943_a_at) / RFU RGS16 (11720944_at) / Fold change /veh RGS16 (11720944_at) / RFU, VPS4B / Fold change vs veh, VPS4B / RFU, CREB1 / Fold change vs veh, CREB1 / RFU, DNAJC13 / Fold change vs veh, DNAJC13 / RFU, GNAQ / Fold change vs veh, GNAQ / RFU, CDK5R1 / Fold change vs veh, CDK5R1 / RFU, ZRANB3 / Fold change vs veh, ZRANB3 / RFU, CUL4A / Fold change vs veh, CUL4A / RFU, CCNY / Fold change vs veh, CCNY / RFU, UFL1 / Fold change vs veh, UFL1 / RFU, COG3 / Fold change vs veh, COG3 / RFU, DIAPH2 / Fold change vs veh, DIAPH2 / RFU, SKA2 / Fold change vs veh, SKA2 / RFU, AFF3 / Fold change vs veh, AFF3 / RFU, LMF1 / Fold change vs veh, LMF1 / RFU, IPO11 / Fold change vs veh, IPO11 / RFU, DFFB / Fold change vs veh, DFFB / RFU, FOXP1 / Fold change vs veh, FOXP1 / RFU, CARD8 / Fold change vs veh, CARD8 / RFU, STRN3 / Fold change vs veh, STRN3 / RFU, ADK / Fold change vs veh, ADK / RFU, RASSF2 / Fold change vs veh, RASSF2 / RFU, WIPF1 / Fold change vs veh, WIPF1 / RFU, LARP1B / Fold change vs veh, LARP1B / RFU, RASA1 / Fold change vs veh, RASA1 / RFU, RB1 / Fold change vs veh, RB1 / RFU, PPFIA1 / Fold change vs veh, PPFIA1 / RFU, MAT2A / Fold change vs veh, MAT2A / RFU, CCT5 / Fold change vs veh, CCT5 / RFU, WDR92 / Fold change vs veh, WDR92 / RFU, CUX1 / Fold change vs veh, CUX1 / RFU, TTC7A / Fold change vs veh, TTC7A / RFU, TMEM135 / Fold change vs veh, TMEM135 / RFU, DEPTOR / Fold change vs veh, DEPTOR / RFU, CPM / Fold change vs veh, CPM / RFU, DNAJB6 / Fold change vs veh, DNAJB6 / RFU, CACNA2D3 / Fold change vs veh, CACNA2D3 / RFU, DTX4 / Fold change vs veh, DTX4 / RFU, TFCP2 / Fold change vs veh, TFCP2 / RFU, GMCL1 /// GMCL1P1 / Fold change vs veh, GMCL1 /// GMCL1P1 / RFU, AEBP2 / Fold change vs veh, AEBP2 / RFU, SNHG1 /// SNORD22 /// SNORD25 /// SNORD26 /// SNORD27 /// SNORD28 /// SNORD29 /// SNORD31 / Fold change vs veh, SNHG1 /// SNORD22 /// SNORD25 /// SNORD26 /// SNORD27 /// SNORD28 /// SNORD29 /// SNORD31 / Fold change (Aza/veh), C12orf56 (ProbeSet 11735607_a_at) / Fold change (ACY-1035/veh), C12orf56 (ProbeSet 11735607_a_at) / Fold change (Aza/veh), FGFR1OP (ProbeSet 11751329_s_at) / Fold change (ACY-1035/veh), FGFR1OP (ProbeSet 11751329_s_at) / Fold change (Aza/veh), VPS36 (ProbeSet 11739960_a_at) / Fold change (ACY-1035/veh), VPS36 (ProbeSet 11739960_a_at) / RFU SYPL1 (11715823_x_at) / Fold change /veh SYPL1 (11715823_x_at) / RFU IGFBP7 (11715501_s_at) / Fold change /veh IGFBP7 (11715501_s_at) / RFU REEP3 (11722064_at) / Fold change /veh REEP3 (11722064_at) / RFU IGLL1 (11728026_x_at) / Fold change /veh IGLL1 (11728026_x_at): dose or concentration left out as unconfirmed
Conditions: ProbeSet 11728271_at; LIST B

With `Nc1ccc(-c2cccs2)cc1NC(=O)c1ccc2c(c1)cc(C1CC1)n2CCN1CCOCC1` [ACY-1035] as the compound, how does the “RFU, ZNF330” value read?
Its value is 663.85 RFU.
